The results in this text go back to ChEMBL document CHEMBL5465560, “Selectivity Literature for EUbOPEN Chemogenomic Library” (2024).

Bounds are passed on as bounds.

Experiment [1] addresses Cyclin-dependent kinase 19 (Homo sapiens) (UniProt Q9BWU1). Kind of experiment: Selectivity interaction (KinomeScan (DiscoverX)) EUB0001079a CDK19. Particulars: at 1 µM.
Experiment [2] addresses Homeodomain-interacting protein kinase 2 (Homo sapiens, UniProt Q9H2X6). Kind of experiment: Selectivity interaction (KinomeScan (DiscoverX)) EUB0001079a HIPK2. Particulars: at 1 µM.
Experiment [3] addresses Serine/threonine-protein kinase MRCK gamma (Homo sapiens) (UniProt Q6DT37). Kind of experiment: Selectivity interaction (KinomeScan (DiscoverX)) EUB0000092b CDC42BPG. Particulars: at 10 µM.
The target of experiment [4] is T1, Serine/threonine-protein kinase Nek2 (Homo sapiens) (UniProt P51955).
T1 sequence (whole entry): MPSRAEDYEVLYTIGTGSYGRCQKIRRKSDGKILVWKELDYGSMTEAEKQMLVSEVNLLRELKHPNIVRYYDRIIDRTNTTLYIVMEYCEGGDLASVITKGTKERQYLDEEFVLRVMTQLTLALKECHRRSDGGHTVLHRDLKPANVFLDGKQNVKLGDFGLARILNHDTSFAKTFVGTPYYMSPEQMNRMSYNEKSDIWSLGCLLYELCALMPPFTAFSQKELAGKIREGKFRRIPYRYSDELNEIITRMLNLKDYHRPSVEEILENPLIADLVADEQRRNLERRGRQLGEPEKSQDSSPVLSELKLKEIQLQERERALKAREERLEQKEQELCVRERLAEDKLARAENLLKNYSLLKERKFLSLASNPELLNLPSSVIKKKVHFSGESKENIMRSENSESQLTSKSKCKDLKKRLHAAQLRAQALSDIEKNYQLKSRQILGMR
As to the kind of experiment: Selectivity interaction (KinomeScan (DiscoverX)) EUB0000092b NEK2. Particulars: at 10 µM.

Experiment [5] concerns the target T2, Non-receptor tyrosine-protein kinase TNK1 (Homo sapiens) (UniProt Q13470).
T2 sequence (whole entry): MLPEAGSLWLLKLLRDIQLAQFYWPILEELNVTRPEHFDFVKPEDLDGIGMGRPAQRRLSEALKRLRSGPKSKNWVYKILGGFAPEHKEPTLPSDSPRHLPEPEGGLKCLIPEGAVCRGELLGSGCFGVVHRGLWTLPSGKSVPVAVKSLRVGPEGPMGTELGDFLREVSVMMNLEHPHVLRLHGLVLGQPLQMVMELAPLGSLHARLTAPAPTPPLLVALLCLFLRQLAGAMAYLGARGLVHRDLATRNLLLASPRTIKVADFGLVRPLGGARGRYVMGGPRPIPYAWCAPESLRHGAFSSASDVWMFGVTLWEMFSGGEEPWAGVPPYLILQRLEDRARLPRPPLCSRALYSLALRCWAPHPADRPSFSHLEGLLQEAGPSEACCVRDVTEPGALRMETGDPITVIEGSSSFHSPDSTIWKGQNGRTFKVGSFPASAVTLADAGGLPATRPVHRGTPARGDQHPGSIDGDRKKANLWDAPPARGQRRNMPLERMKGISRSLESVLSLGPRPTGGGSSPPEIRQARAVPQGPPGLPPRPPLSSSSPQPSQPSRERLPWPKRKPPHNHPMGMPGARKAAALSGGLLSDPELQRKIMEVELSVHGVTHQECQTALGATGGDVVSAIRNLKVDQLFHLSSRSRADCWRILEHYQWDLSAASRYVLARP
Kind of experiment: Selectivity interaction (KinomeScan (DiscoverX)) EUB0000092b TNK1. Particulars: at 10 µM.

The next experiment concerns the target Mu-type opioid receptor (Homo sapiens, UniProt P35372). As to the kind of experiment: Selectivity interaction (Panel of kinases, GPCRs, ion channels and transporters (enzymatic assay)) EUB0000223bCl OPRM1.
Experiment [6] deals with T3, Serine/threonine-protein kinase DCLK2 (Homo sapiens) (UniProt Q8N568).
T3 sequence (whole entry): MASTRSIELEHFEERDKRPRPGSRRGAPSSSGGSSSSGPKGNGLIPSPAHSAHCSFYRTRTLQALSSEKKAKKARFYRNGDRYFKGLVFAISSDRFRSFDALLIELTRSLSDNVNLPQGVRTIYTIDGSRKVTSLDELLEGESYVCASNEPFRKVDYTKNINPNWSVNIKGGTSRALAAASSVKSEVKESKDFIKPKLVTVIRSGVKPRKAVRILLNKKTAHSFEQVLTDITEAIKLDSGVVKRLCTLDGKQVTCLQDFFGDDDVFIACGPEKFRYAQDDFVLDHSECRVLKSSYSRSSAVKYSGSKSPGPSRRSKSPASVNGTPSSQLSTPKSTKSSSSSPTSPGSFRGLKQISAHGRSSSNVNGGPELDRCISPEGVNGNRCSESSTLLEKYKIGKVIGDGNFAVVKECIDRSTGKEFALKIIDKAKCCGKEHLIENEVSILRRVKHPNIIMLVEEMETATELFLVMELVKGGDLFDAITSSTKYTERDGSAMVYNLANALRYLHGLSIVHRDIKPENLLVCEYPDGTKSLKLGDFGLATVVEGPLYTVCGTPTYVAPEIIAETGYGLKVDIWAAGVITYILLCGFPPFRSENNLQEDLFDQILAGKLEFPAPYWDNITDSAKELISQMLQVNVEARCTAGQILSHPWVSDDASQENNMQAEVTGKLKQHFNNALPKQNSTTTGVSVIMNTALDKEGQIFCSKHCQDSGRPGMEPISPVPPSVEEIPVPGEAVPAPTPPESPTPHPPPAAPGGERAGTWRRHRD
Kind of experiment: Selectivity interaction (KinomeScan (DiscoverX)) EUB0000045b DCLK2.

Experiment [7] deals with Serine/threonine-protein kinase 10 (Homo sapiens) (UniProt O94804). Kind of experiment: Selectivity interaction (KinomeScan (DiscoverX)) EUB0000045b STK10.
Sequence of Serine/threonine-protein kinase 10 (Homo sapiens) (O94804 whole entry, looked up): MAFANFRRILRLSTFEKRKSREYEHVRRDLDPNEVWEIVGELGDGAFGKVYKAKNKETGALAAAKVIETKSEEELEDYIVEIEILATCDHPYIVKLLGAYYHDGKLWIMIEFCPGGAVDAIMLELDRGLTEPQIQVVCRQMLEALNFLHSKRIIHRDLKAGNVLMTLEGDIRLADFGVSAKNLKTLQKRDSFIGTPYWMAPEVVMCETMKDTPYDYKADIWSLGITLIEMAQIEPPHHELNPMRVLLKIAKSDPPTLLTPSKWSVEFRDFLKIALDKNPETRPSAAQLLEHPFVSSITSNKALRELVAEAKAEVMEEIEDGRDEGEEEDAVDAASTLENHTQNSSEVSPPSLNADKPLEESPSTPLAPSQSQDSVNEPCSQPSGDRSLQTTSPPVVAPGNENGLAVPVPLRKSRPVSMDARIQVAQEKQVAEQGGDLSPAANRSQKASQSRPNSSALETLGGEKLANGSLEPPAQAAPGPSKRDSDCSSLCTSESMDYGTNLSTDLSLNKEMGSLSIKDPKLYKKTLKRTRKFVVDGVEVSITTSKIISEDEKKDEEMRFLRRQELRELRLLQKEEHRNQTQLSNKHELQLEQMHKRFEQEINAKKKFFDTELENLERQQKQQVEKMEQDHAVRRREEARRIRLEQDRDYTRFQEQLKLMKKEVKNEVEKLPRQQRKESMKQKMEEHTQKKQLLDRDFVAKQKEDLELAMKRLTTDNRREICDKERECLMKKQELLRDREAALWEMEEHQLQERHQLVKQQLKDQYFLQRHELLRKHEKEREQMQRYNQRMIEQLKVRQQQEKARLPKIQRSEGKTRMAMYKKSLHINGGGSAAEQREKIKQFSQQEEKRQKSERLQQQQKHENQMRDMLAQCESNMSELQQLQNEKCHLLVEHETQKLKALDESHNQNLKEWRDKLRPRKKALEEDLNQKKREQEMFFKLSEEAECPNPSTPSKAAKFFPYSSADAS
Experiment [8] addresses Serine/threonine-protein kinase 16 (Homo sapiens, UniProt O75716). Kind of experiment: Selectivity interaction (LanthaScreen Eu Kinase Binding Assay) EUB0001632a STK16. Particulars: at 10 µM. A general note: TR-FRET usually uses a lanthanide donor and a delayed reading to cut background.
The target in experiment [9] is Cyclin-dependent kinase-like 3 (Homo sapiens) (UniProt Q8IVW4). Kind of experiment: Selectivity interaction (KinomeScan (DiscoverX)) EUB0000607a CDKL3. Particulars: at 10 µM.
The target in experiment [10] is Tyrosine-protein kinase ABL2 (Homo sapiens, UniProt P42684). As to the kind of experiment: Selectivity interaction (ActivX KiNativ screen (kinase selectivity in THP-1 cell lysates)) EUB0000639a ABL2. The class given is subcellular. Particulars: lysate, at 1 µM.
Sequence of Tyrosine-protein kinase ABL2 (P42684 whole entry): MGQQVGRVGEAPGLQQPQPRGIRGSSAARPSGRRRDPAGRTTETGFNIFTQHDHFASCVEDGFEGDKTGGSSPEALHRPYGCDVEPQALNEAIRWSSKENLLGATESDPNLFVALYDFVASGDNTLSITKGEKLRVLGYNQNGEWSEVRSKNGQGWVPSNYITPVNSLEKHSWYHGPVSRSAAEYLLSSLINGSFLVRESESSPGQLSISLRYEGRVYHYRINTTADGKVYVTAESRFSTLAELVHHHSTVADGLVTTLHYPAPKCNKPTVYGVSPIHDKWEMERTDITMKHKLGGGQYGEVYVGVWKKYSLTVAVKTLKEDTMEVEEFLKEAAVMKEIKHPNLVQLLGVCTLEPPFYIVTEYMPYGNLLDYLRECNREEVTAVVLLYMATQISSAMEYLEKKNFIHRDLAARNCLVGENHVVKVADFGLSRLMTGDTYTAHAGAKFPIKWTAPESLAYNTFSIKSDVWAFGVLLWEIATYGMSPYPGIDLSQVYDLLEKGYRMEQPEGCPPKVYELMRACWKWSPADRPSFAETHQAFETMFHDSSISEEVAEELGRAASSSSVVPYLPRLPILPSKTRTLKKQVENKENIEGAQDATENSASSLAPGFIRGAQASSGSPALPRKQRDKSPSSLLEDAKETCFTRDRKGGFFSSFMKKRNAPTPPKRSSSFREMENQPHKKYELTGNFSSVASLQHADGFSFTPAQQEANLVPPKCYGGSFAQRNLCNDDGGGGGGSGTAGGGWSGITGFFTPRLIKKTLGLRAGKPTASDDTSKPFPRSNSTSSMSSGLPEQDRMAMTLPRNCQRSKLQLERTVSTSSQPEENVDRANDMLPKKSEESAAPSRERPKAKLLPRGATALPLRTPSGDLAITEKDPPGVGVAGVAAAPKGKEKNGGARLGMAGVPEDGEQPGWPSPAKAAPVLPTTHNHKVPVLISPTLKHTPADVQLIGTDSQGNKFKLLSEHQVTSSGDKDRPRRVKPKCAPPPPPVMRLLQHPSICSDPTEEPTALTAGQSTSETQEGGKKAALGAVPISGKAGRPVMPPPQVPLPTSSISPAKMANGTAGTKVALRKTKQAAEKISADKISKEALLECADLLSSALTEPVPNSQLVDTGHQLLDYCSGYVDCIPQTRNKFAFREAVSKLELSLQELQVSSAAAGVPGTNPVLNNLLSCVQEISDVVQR
Experiment [11] addresses G protein-coupled receptor kinase 4 (Homo sapiens) (UniProt P32298). Kind of experiment: Selectivity interaction (KinomeScan (DiscoverX)) EUB0000229b GRK4. Particulars: at 10 µM.
The target in experiment [12] is MAP kinase-interacting serine/threonine-protein kinase 1 (Homo sapiens) (UniProt Q9BUB5). As to the kind of experiment: Selectivity interaction (KinomeScan (DiscoverX)) EUB0000595a MKNK1. Particulars: at 10 µM.
In experiment [13] the target is Serine/threonine-protein kinase 35 (Homo sapiens) (UniProt Q8TDR2). Kind of experiment: Selectivity interaction (KinomeScan (DiscoverX)) EUB0000595a STK35. Particulars: at 10 µM.
Experiment [14] has as its target Insulin-like growth factor 1 receptor (Homo sapiens, UniProt P08069). As to the kind of experiment: Selectivity interaction (KinomeScan (DiscoverX)) EUB0000618a IGF1R. Particulars: at 10 µM.

Sequence of Serine/threonine-protein kinase MRCK gamma (Homo sapiens) (Q6DT37 whole entry): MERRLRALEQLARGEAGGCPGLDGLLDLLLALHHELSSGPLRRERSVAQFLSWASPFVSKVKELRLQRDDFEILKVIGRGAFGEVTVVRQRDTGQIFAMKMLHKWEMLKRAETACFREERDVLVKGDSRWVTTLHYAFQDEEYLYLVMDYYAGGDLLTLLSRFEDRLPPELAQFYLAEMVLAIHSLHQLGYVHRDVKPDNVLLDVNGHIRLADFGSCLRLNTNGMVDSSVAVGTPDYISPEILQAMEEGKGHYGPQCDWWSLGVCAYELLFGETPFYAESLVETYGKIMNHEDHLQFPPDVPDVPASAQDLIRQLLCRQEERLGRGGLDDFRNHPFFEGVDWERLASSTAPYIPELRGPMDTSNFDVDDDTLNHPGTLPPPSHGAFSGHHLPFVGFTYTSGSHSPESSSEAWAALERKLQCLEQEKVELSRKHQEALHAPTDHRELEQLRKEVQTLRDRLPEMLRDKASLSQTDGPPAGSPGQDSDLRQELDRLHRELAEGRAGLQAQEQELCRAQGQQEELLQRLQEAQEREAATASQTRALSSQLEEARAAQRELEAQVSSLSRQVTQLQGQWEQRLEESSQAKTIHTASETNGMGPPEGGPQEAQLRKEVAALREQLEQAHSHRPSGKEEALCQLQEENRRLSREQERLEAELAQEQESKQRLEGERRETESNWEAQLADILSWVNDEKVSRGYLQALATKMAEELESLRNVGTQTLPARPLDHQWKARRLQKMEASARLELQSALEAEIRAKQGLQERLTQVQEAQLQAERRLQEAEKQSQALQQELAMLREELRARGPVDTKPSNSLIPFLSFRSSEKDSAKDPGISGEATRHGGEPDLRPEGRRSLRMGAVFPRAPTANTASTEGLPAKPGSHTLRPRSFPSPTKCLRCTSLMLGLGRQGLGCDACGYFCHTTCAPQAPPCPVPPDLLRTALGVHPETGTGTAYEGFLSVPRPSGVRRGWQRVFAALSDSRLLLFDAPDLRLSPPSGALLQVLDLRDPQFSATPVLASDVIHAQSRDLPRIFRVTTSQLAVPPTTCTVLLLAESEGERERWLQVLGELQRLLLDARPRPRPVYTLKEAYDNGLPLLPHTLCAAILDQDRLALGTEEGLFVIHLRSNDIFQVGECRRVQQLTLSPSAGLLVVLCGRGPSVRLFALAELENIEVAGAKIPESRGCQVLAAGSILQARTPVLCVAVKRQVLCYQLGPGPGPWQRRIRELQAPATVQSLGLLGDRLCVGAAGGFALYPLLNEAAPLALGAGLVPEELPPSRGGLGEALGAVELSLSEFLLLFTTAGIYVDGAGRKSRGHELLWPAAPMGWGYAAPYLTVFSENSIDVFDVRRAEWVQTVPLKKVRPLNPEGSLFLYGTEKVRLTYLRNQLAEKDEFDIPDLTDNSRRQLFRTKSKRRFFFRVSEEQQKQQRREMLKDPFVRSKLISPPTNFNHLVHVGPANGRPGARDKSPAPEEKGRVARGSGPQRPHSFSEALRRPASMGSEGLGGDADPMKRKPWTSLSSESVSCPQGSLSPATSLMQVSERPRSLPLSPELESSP
Sequence of Insulin-like growth factor 1 receptor (P08069 31-736 limits assumed): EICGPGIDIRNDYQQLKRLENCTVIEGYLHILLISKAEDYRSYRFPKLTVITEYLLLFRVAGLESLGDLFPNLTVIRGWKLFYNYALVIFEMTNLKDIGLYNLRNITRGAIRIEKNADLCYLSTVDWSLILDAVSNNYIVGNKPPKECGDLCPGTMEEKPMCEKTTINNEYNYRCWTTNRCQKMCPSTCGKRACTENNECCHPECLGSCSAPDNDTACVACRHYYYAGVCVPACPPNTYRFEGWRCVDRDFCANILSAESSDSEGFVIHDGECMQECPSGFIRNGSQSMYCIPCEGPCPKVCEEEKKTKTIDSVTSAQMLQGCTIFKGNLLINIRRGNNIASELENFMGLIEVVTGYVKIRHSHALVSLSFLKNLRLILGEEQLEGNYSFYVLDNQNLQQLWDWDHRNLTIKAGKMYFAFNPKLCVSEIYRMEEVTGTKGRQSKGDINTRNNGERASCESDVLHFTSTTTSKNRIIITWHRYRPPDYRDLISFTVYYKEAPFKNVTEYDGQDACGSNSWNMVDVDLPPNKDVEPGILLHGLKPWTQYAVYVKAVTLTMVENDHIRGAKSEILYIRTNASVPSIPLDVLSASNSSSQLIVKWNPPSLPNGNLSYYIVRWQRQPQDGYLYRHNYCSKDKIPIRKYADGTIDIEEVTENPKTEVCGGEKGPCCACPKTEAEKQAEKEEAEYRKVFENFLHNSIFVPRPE
Sequence of Insulin-like growth factor 1 receptor (P08069 741-1367 limits assumed): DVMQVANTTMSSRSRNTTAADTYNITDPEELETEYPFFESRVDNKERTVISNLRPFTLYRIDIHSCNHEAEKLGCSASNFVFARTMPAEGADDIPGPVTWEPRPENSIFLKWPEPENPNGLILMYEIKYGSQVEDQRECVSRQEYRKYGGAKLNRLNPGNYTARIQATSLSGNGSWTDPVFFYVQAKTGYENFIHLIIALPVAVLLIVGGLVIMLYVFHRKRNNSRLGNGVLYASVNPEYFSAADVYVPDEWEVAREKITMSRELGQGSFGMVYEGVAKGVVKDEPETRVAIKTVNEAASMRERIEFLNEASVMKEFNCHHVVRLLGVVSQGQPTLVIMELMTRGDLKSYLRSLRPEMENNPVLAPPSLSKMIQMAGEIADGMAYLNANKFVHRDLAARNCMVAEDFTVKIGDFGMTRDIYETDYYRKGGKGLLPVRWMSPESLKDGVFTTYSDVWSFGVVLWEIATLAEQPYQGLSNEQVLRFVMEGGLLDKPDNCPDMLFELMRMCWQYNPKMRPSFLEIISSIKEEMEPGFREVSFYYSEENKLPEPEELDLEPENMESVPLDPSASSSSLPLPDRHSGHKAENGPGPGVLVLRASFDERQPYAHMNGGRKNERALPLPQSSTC

On to `Nc1cnc(N2CCc3cc(S(=O)(=O)Nc4c(F)cc(Cl)cc4F)cc(N4CCCC4=O)c32)nc1` [TP-020n], for which the % of control in experiment [1] and in [2] was 100% throughout.

`CCC(=O)N1CCN(c2ccc(-n3c(=O)ccc4cnc5ccc(-c6cnc7ccccc7c6)cc5c43)cc2C(F)(F)F)CC1`: the % of control in [3] worked out at 1.6%; in experiment [4], 90%; in experiment [5], 6.8%. As to `COc1cc(C(=O)N2CC[C@@H](O)[C@@H](N)C2)cc2nc(-c3cc4ccccc4n3CC3CC3)n(C)c12`, the pXC50 on Mu-type opioid receptor is < 4 M. Consider `C=CC(=O)Nc1cc(-n2c(=O)ccc3cnc4ccc(-c5ccc(NS(C)(=O)=O)cc5)cc4c32)ccc1C`, for which the % of control in experiment [6] (at 1 µM) amounted to 100%; in experiment [6] (at 10 µM), 100%; in experiment [7] (at 1 µM), 87%; in experiment [7] (at 10 µM), 100%. For `Cn1cc(-n2cnc3c(NCc4nc5cc(Cl)c(Cl)cc5[nH]4)nc(N4CCOCC4)nc32)cn1`, the % of inhibition in experiment [8] is -24.9%.

`CNC(=O)Nc1ccc(-c2nc(N3CC4CCC(C3)O4)c3cnn(C4CCC5(CC4)OCCO5)c3n2)cc1` came in with a % of control in experiment [9] of 95%. As for `CC[C@@H]1[C@H](F)C(=O)N[C@@H]1COc1nccc2cc(C(N)=O)c(OC)cc12` [ZIMLOVISERTIB], the % of inhibition in experiment [10] was -13.2%.

In experiment [11], `COc1cc(N(C)c2ccnc3ccc(C(F)(F)F)cc23)cc(OC)c1OC` showed a % binding of 90%.

Consider `COCC(=O)NC/C=C/c1ccc2ncnc(Nc3ccc(Oc4ccc(C)nc4)c(C)c3)c2c1` [CP-724714], for which the % of control was 100% in [12] and 65% in [13]. Regarding `O[C@H]1CC[C@H](Nc2ncc3nc(Nc4c(F)cc(F)cc4F)n([C@H]4CCOC4)c3n2)CC1`, the % of control in [14] was found to be 90%.
